In the test the target is T1, HPK1 (Homo sapiens, UniProt Q92918).
T1 construct: A HiBiT tag was introduced by CRISPR on the N terminus of HPK1 in Jurkat cells; host or cells: Jurkat cells (ATCC TIB-152), monoclonal line with CRISPR knock-in of HiBiT at the endogenous HPK1 locus
Description: HPK1 Cellular HiBit Degradation Assay. As to conditions: HiBiT HPK1 Jurkat cells, 24 hrs; for DC50: concentration at which 50% of HPK1 was remaining, read-out: DC50 Category; for Dmax: Jurkat, maximum degradation vs DMSO vehicle control, read-out: Dmax Category. The test is classed as cell-based. Summed up: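 Jurkat cells with CRISPR N-terminal HiBiT-tagged endogenous HPK1 treated 24 h at 37 °C with 11-point, 3.16-fold dilutions (10 uM to 0.1 nM final). HiBiT lytic luminescence gives % HPK1 remaining versus DMSO, with parental cells as background. Four-parameter fit yields DC50; Dmax = 100 minus lowest % remaining.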
In general terms: The HiBiT peptide binds its large partner to form an active luciferase.

Drawing on patent US12091426B2, “Bifunctional degraders of hematopoietic progenitor kinase and therapeutic uses thereof” (Nurix Therapeutics, Inc., priority 2021, dated 2024), this text covers DC50 and Dmax for 6 molecules.

T1 sequence (Q92918 whole entry): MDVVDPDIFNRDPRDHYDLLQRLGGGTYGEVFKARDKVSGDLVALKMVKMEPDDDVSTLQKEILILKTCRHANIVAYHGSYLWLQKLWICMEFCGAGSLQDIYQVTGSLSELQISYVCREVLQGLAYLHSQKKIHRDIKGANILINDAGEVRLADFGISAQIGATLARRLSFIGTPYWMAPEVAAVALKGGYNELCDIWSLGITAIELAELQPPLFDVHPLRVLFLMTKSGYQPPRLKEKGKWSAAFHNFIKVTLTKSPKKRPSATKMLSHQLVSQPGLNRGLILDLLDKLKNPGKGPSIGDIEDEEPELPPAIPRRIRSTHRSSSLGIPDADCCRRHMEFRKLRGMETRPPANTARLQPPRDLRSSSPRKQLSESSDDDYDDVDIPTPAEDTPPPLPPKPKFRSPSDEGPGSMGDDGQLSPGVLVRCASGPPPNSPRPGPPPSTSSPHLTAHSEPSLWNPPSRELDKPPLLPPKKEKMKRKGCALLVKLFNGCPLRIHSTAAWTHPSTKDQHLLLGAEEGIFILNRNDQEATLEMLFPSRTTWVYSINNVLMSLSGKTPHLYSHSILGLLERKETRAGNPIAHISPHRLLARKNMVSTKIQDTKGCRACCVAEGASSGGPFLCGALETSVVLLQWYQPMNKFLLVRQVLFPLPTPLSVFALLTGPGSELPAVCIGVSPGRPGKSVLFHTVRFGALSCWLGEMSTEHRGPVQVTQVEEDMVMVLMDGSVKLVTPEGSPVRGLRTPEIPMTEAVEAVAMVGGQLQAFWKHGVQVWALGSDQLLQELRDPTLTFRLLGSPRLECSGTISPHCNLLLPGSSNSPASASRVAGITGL

With `CC(C)n1cnc2cc(-c3ccc4c(c3)N([C@H]3C[C@@H](N5C6COCC5C6)C3)C(=O)C43CCN(C(=O)C4(C)CCN(C(=O)C5CCN(c6ccc(C7CCC(=O)NC7=O)cc6)CC5)CC4)CC3)nc(NC3CC3)c21` (mixture of isomers) [Example 195, (3RS)-3-(4-{4-[4-({6-[4-(cyclopropylamino)-3-(propan-2-yl)-3H-imidazo[4,5-c]pyridin-6-yl]-2-oxo-1-[(1S,3S)-3-{3-oxa-6-Azabicyclo[3.1.1]heptan-6-yl}cyclobutyl]-1,2-dihydrospiro[indole-3,4′-piperidin]-1′-yl}carbonyl)-4-methylpiperidine-1-carbonyl]piperidin-1-yl}phenyl)piperidine-2,6-dione], the DC50 (commonly the concentration giving 50% degradation) was 500 to 1000 nM and the Dmax (in general, the greatest extent of degradation seen) was in the range of 50 to 70%.

Consider `CC(C)n1cnc2cc(-c3ccc4c(c3)N([C@H]3C[C@@H](N5CCCCC5)C3)C(=O)C43CCN(C(=O)C4(C)CCN(C(=O)C5CCN(c6ccc(C7CCC(=O)NC7=O)cc6)CC5)CC4)CC3)nc(NC3CCOCC3)c21` (mixture of isomers) [Example 196, (3RS)-3-[4-(4-{4-methyl-4-[(6-{4-[(oxan-4-yl)amino]-3-(propan-2-yl)-3H-imidazo[4,5-c]pyridin-6-yl}-2-oxo-1-[(1S,3S)-3-(piperidin-1-yl)cyclobutyl]-1,2-dihydrospiro[indole-3,4′-piperidin]-1′-yl)carbonyl]piperidine-1-carbonyl}piperidin-1-yl)phenyl]piperidine-2,6-dione], for which the DC50 is less than 100 nM and the Dmax was in the range of 70 to 85%.

For the molecule `CC(C)n1cnc2cc(-c3ccc4c(c3)N([C@H]3C[C@@H](N5CC6CCC(C5)O6)C3)C(=O)C43CCN(C(=O)C4(C)CCN(C(=O)C5CCN(c6ccc(C7CCC(=O)NC7=O)cc6)CC5)CC4)CC3)nc(NC3CC3)c21` (mixture of isomers) [Example 197], the DC50 lay within 100 to 500 nM and the Dmax was in the range of 50 to 70%.

Turning to `CC(C)n1cnc2cc(-c3ccc4c(c3)N([C@H]3C[C@@H](N5CCC[C@H](F)C5)C3)C(=O)C43CCN(C(=O)C4(C)CCN(C(=O)C5CCN(c6ccc(C7CCC(=O)NC7=O)cc6)CC5)CC4)CC3)nc(NC3CC3)c21` (mixture of isomers) [Example 198, (3RS)-3-(4-{4-[4-({6-[4-(cyclopropylamino)-3-(propan-2-yl)-3H-imidazo[4,5-c]pyridin-6-yl]-2-oxo-1-[(1S,3S)-3-[(3S)-3-fluoropiperidin-1-yl]cyclobutyl]-1,2-dihydrospiro[indole-3,4′-piperidin]-1′-yl}carbonyl)-4-methylpiperidine-1-carbonyl]piperidin-1-yl}phenyl)piperidine-2,6-dione], the DC50 was 100 to 500 nM and the Dmax is 70 to 85%.

For `CC(C)n1cnc2cc(-c3ccc4c(c3)N([C@H]3C[C@@H](N5CCC[C@@H](F)C5)C3)C(=O)C43CCN(C(=O)C4(C)CCN(C(=O)C5CCN(c6ccc(C7CCC(=O)NC7=O)cc6)CC5)CC4)CC3)nc(NC3CC3)c21` (mixture of isomers) [Example 199, (3RS)-3-(4-{4-[4-({6-[4-(cyclopropylamino)-3-(propan-2-yl)-3H-imidazo[4,5-c]pyridin-6-yl]-2-oxo-1-[(1S,3S)-3-[(3R)-3-fluoropiperidin-1-yl]cyclobutyl]-1,2-dihydrospiro[indole-3,4′-piperidin]-1′-yl}carbonyl)-4-methylpiperidine-1-carbonyl]piperidin-1-yl}phenyl)piperidine-2,6-dione], the DC50 lay in the range of 100 to 500 nM and the Dmax was 50 to 70%.

Consider `CC(C)n1cnc2cc(-c3ccc4c(c3)N([C@H]3C[C@@H](N5C6CCC5COC6)C3)C(=O)C43CCN(C(=O)C4(C)CCN(C(=O)CC5CCN(c6ccc(C7CCC(=O)NC7=O)cc6)CC5)CC4)CC3)nc(NC3CC3)c21` (mixture of isomers) [Example 202, (3RS)-3-[4-(4-{2-[4-({6-[4-(cyclopropylamino)-3-(propan-2-yl)-3H-imidazo[4,5-c]pyridin-6-yl]-2-oxo-1-[(1S,3S)-3-{3-oxa-8-azabicyclo[3.2.1]octan-8-yl}cyclobutyl]-1,2-dihydrospiro[indole-3,4′-piperidin]-1′-yl}carbonyl)-4-methylpiperidin-1-yl]-2-oxoethyl}piperidin-1-yl)phenyl]piperidine-2,6-dione], for which the DC50 lay in the range of 500 to 1000 nM and the Dmax is 50 to 70%.
